Assay results reported in PubChem BioAssay AID248 (DTP/NCI, 2004).
Inconclusive results and toxic doses are left out. Rule as the data show it: active = T/C of 150% or more; inactive = T/C below 125%.

Test system: L1210 leukemia ip in BDF1 mice, survival T/C
Test: NCI In Vivo Anticancer Drug Screen. Data for tumor model L1210 Leukemia (intraperitoneal) in B6D2F1 (BDF1) mice
Conditions: endpoint: mean survival time, higher = longer survival
Summary of the method: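 Mice bearing the transplanted tumor received compound or vehicle. Survival of the treated group was divided by that of the vehicle-treated control group to give the ratio.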

[1] = dose: 100.0 mg/kg/injection, schedule: Q01DX001 (ip), vehicle: carboxymethylcellulose (CMC)
[2] = dose: 200.0 mg/kg/injection, schedule: Q01DX001 (ip), vehicle: carboxymethylcellulose (CMC)
[3] = dose: 400.0 mg/kg/injection, schedule: Q01DX001 (ip), vehicle: carboxymethylcellulose (CMC)
[4] = dose: 100.0 mg/kg/injection, schedule: Q01DX001 (ip), vehicle: saline
[5] = dose: 100.0 mg/kg/injection, schedule: Q04DX003 (ip), vehicle: saline
[6] = dose: 100.0 mg/kg/injection, schedule: Q01DX009 (ip), vehicle: saline with Tween-80
[7] = dose: 200.0 mg/kg/injection, schedule: Q01DX009 (ip), vehicle: saline with Tween-80
[8] = dose: 400.0 mg/kg/injection, schedule: Q01DX009 (ip), vehicle: saline with Tween-80

Measured: T/C

O=C(COc1ccc(Cl)cc1Cl)NNc1ccc([N+](=O)[O-])cc1
inactive: dose: 100.0 mg/kg/injection, schedule: Q04DX002 (ip), vehicle: saline 100 % of control | dose: 200.0 mg/kg/injection, schedule: Q04DX002 (ip), vehicle: saline 92 % of control | dose: 400.0 mg/kg/injection, schedule: Q04DX002 (ip), vehicle: saline 88 % of control

Cc1ccc(NC(=O)Nc2ccc(Cl)c(Cl)c2)c(C)c1
inactive: dose: 100.0 mg/kg/injection, schedule: Q01DX009 (ip), vehicle: Klucel (hydroxypropylcellulose) (HPC) 90 % of control | dose: 100.0 mg/kg/injection, schedule: Q04DX003 (ip), vehicle: Klucel (hydroxypropylcellulose) (HPC) 89 % of control | dose: 200.0 mg/kg/injection, schedule: Q01DX009 (ip), vehicle: Klucel (hydroxypropylcellulose) (HPC) 90 % of control | dose: 200.0 mg/kg/injection, schedule: Q04DX003 (ip), vehicle: Klucel (hydroxypropylcellulose) (HPC) 89 % of control | dose: 400.0 mg/kg/injection, schedule: Q04DX003 (ip), vehicle: Klucel (hydroxypropylcellulose) (HPC) 89 % of control

O=C(Nc1ccc(C2=NCCN2)cc1)N1CCN(C(=O)Nc2ccc(C3=NCCN3)cc2)CC1
inactive: dose: 250.0 mg/kg/injection, schedule: Q01DX Z (ip), vehicle: water 87 % of control

COc1ccc(OC)c(COC(=O)c2ccccc2)c1COC(=O)c1ccccc1
inactive: [1] 95 % of control | [2] 101 % of control | [3] 95 % of control

O=C1NCC2(CCCCCC2)O1
inactive: [4] 104 % of control | dose: 200.0 mg/kg/injection, schedule: Q01DX001 (ip), vehicle: saline 108 % of control

C/C=C(\C#N)c1ccc(-c2ccccc2)cc1
inactive: dose: 100.0 mg/kg/injection, schedule: Q01DX001 (ip), vehicle: saline with Tween-80 94 % of control | dose: 200.0 mg/kg/injection, schedule: Q01DX001 (ip), vehicle: saline with Tween-80 91 % of control | dose: 400.0 mg/kg/injection, schedule: Q01DX001 (ip), vehicle: saline with Tween-80 98 % of control

Clc1[nH]nc2ccccc12
inactive: dose: 25.0 mg/kg/injection, schedule: Q01DX009 (ip), vehicle: saline sonified 101 % of control | dose: 50.0 mg/kg/injection, schedule: Q01DX009 (ip), vehicle: saline sonified 93 % of control | dose: 100.0 mg/kg/injection, schedule: Q01DX001 (ip), vehicle: saline sonified 91 % of control | dose: 100.0 mg/kg/injection, schedule: Q01DX009 (ip), vehicle: saline sonified 97 % of control

Cc1ccc(C)[nH]1
inactive: dose: 5.0 mg/kg/injection, schedule: Q01DX009 (ip), vehicle: saline with Tween-80 96 % of control | dose: 5.0 mg/kg/injection, schedule: Q04DX003 (ip), vehicle: saline with Tween-80 93 % of control | dose: 10.0 mg/kg/injection, schedule: Q01DX009 (ip), vehicle: saline with Tween-80 94 % of control | dose: 10.0 mg/kg/injection, schedule: Q04DX003 (ip), vehicle: saline with Tween-80 98 % of control | dose: 20.0 mg/kg/injection, schedule: Q01DX009 (ip), vehicle: saline with Tween-80 100 % of control | dose: 20.0 mg/kg/injection, schedule: Q04DX003 (ip), vehicle: saline with Tween-80 93 % of control

ClC(Cl)=C(Cl)C(Cl)=C(Cl)Cl
inactive: dose: 3.13 mg/kg/injection, schedule: Q04DX003 (ip), vehicle: Klucel (hydroxypropylcellulose) (HPC) 98 % of control | dose: 6.25 mg/kg/injection, schedule: Q04DX003 (ip), vehicle: Klucel (hydroxypropylcellulose) (HPC) 100 % of control | dose: 12.5 mg/kg/injection, schedule: Q04DX003 (ip), vehicle: Klucel (hydroxypropylcellulose) (HPC) 98 % of control | dose: 100.0 mg/kg/injection, schedule: Q04DX003 (ip), vehicle: carboxymethylcellulose (CMC) 101 % of control

O=S(=O)(OCC1CO1)c1ccccc1 (configuration not stated)
inactive: dose: 50.0 mg/kg/injection, schedule: Q01DX006 (ip), vehicle: saline with Tween-80 103 % of control | dose: 100.0 mg/kg/injection, schedule: Q01DX006 (ip), vehicle: saline with Tween-80 106 % of control | dose: 200.0 mg/kg/injection, schedule: Q01DX006 (ip), vehicle: saline with Tween-80 110 % of control

O=S1(=O)C=C(Br)CC1
inactive: dose: 75.0 mg/kg/injection, schedule: Q01DX001 (ip), vehicle: saline with Tween-80 97 % of control | dose: 150.0 mg/kg/injection, schedule: Q01DX001 (ip), vehicle: saline with Tween-80 97 % of control | dose: 300.0 mg/kg/injection, schedule: Q01DX001 (ip), vehicle: saline with Tween-80 95 % of control

CCCc1nc(N)[nH]c(=O)c1CCCCc1ccccc1
inactive: [5] 96 % of control | dose: 200.0 mg/kg/injection, schedule: Q04DX003 (ip), vehicle: saline 110 % of control | dose: 400.0 mg/kg/injection, schedule: Q04DX003 (ip), vehicle: saline 100 % of control

CC(CCc1ccccc1)NC(C)C(O)c1ccc(O)cc1 (configuration not stated)
inactive: dose: 6.25 mg/kg/injection, schedule: Q01DX009 (ip), vehicle: saline 101 % of control | dose: 12.5 mg/kg/injection, schedule: Q01DX009 (ip), vehicle: saline 104 % of control | dose: 12.5 mg/kg/injection, schedule: Q04DX003 (ip), vehicle: saline 94 % of control | dose: 25.0 mg/kg/injection, schedule: Q01DX009 (ip), vehicle: saline 98 % of control | dose: 25.0 mg/kg/injection, schedule: Q04DX003 (ip), vehicle: saline 102 % of control | dose: 50.0 mg/kg/injection, schedule: Q01DX009 (ip), vehicle: saline 97 % of control | dose: 50.0 mg/kg/injection, schedule: Q04DX003 (ip), vehicle: saline 94 % of control | dose: 100.0 mg/kg/injection, schedule: Q01DX009 (ip), vehicle: saline 97 % of control | [5] 89 % of control

CCCC(CNC(=O)OCC)(CNC(=O)OCC)c1ccccc1
inactive: [1] 94 % of control | [2] 94 % of control | [3] 105 % of control

Cc1cc([N+](=O)[O-])c(Cl)c([N+](=O)[O-])c1
inactive: [1] 91 % of control | [2] 89 % of control | [3] 100 % of control

CCOc1ccc2c(O)csc2c1
inactive: [6] 93 % of control | [7] 95 % of control | [8] 97 % of control

O=C(Nc1ccc(CCO)cc1)c1ccc(F)cc1
inactive: [6] 102 % of control | [7] 93 % of control | [8] 93 % of control

CCOC(=O)/C(=C/c1ccc(C)cc1)P(=O)(OCC)OCC
inactive: dose: 50.0 mg/kg/injection, schedule: Q01DX001 (ip), vehicle: saline 101 % of control | [4] 101 % of control

O=C1CC2(O)CCC1(c1ccccc1)CC2
inactive: dose: 75.0 mg/kg/injection, schedule: Q04DX002 (ip), vehicle: Klucel (hydroxypropylcellulose) (HPC) 92 % of control | dose: 150.0 mg/kg/injection, schedule: Q04DX002 (ip), vehicle: Klucel (hydroxypropylcellulose) (HPC) 100 % of control | dose: 300.0 mg/kg/injection, schedule: Q04DX002 (ip), vehicle: Klucel (hydroxypropylcellulose) (HPC) 95 % of control

CC(=O)CC(=O)Nc1cccc(NC(=O)CC(C)=O)c1
inactive: dose: 100.0 mg/kg/injection, schedule: Q01DX001 (ip), vehicle: Klucel (hydroxypropylcellulose) (HPC) 99 % of control | dose: 200.0 mg/kg/injection, schedule: Q01DX001 (ip), vehicle: Klucel (hydroxypropylcellulose) (HPC) 94 % of control | dose: 400.0 mg/kg/injection, schedule: Q01DX001 (ip), vehicle: Klucel (hydroxypropylcellulose) (HPC) 101 % of control

CCOCCOCCOC(C)Oc1ccc(C(=O)OCC)cc1 (configuration not stated)
inactive: dose: 100.0 mg/kg/injection, schedule: Q04DX002 (ip), vehicle: saline with Tween-80 103 % of control | dose: 200.0 mg/kg/injection, schedule: Q04DX002 (ip), vehicle: saline with Tween-80 100 % of control | dose: 400.0 mg/kg/injection, schedule: Q04DX002 (ip), vehicle: saline with Tween-80 107 % of control
